Structures can show the parent of a compound that is named as a salt. Active and inactive are the calls of the source. No cut-off for these calls is given here.

Usually IC50 stands for the concentration needed to halve the response being measured.

Assay [1] concerns PC-3. As to the kind of experiment: Cytotoxicity against human PC-3 cells assessed as cell viability inhibition for 48 hrs by MTT assay. It is filed as functional, cell-based. The settings on record: PC-3, 48 h.
Assay [2] deals with A549. The experiment in a line: Cytotoxicity against human A549 cells assessed as cell viability inhibition for 48 hrs by MTT assay. It is filed as functional, cell-based. The settings on record: A549, 48 h.
Assay [3] relates to MCF7. The experiment in a line: Cytotoxicity against human MCF-7 cells assessed as cell viability inhibition for 48 hrs by MTT assay. The format is functional, cell-based. The settings on record: MCF7, 48 h. (In general: Tetrazolium assays rely on reduction of a dye to a coloured formazan, in cell work by metabolically active cells.)
The test system of assay [4] is NCI-H1299. As to the kind of experiment: Cytotoxicity against human […] cells assessed as cell viability inhibition for 48 hrs by MTT assay. The format is functional, cell-based. The settings on record: NCI-H1299, 48 h.
For assay [5], the system named is PC-3. The experiment in a line: Induction of apoptosis in human PC-3 cells assessed as nuclear shrinkage at 2 uM incubated for 24 hrs by DAPI staining analysis. It is filed as functional, cell-based.
The subject of assay [6] is PC-3. The experiment in a line: Induction of apoptosis in human PC-3 cells assessed as granular apoptotic body formation at 2 uM incubated for 24 hrs by DAPI staining analysis. It is filed as functional, cell-based.
Assay [7] relates to PC-3. As to the kind of experiment: Induction of apoptosis in human PC-3 cells assessed as early apoptotic cells at 2 uM incubated for 24 hrs by annexin V/propidium iodide based flow cytometry (reference value: 2.71%). It is filed as functional. In general terms: In flow cytometry, cells or beads pass a laser one at a time.
The test system of assay [8] is PC-3. The experiment in a line: Induction of apoptosis in human PC-3 cells assessed as early apoptotic cells at 4 uM incubated for 24 hrs by annexin V/propidium iodide based flow cytometry (reference value: 2.71%). It is filed as functional.
Assay [9] deals with PC-3. As to the kind of experiment: Induction of apoptosis in human PC-3 cells assessed as early apoptotic cells at 6 uM incubated for 24 hrs by annexin V/propidium iodide based flow cytometry (reference value: 2.71%). The format is functional.
Assay [10] concerns PC-3. As to the kind of experiment: Induction of apoptosis in human PC-3 cells assessed as late apoptotic cells at 2 uM incubated for 24 hrs by annexin V/propidium iodide based flow cytometry (reference value: 3.89%). The format is functional.
The test system of assay [11] is PC-3. The experiment in a line: Induction of apoptosis in human PC-3 cells assessed as late apoptotic cells at 4 uM incubated for 24 hrs by annexin V/propidium iodide based flow cytometry (reference value: 3.89%). It is filed as functional.
Assay [12] deals with PC-3. The experiment in a line: Induction of apoptosis in human PC-3 cells assessed as late apoptotic cells at 6 uM incubated for 24 hrs by annexin V/propidium iodide based flow cytometry (reference value: 3.89%). The format is functional.
In assay [13] the test system is PC-3. The experiment in a line: Induction of apoptosis in human PC-3 cells assessed as necrotic cells at 2 uM incubated for 24 hrs by annexin V/propidium iodide based flow cytometry (reference value: 1.93%). It is filed as functional.
In assay [14] the test system is PC-3. As to the kind of experiment: Induction of apoptosis in human PC-3 cells assessed as necrotic cells at 4 uM incubated for 24 hrs by annexin V/propidium iodide based flow cytometry (reference value: 1.93%). It is filed as functional.
Assay [15] deals with PC-3. The experiment in a line: Induction of apoptosis in human PC-3 cells assessed as necrotic cells at 6 uM incubated for 24 hrs by annexin V/propidium iodide based flow cytometry (reference value: 1.93%). It is filed as functional.
The subject of assay [16] is PC-3. As to the kind of experiment: Induction of apoptosis in human PC-3 cells assessed as mitochondrial membrane potential loss at 2 uM incubated for 24 hrs by JC1 staining based flow cytometric analysis (reference value: 100%). The format is functional, cell-based.
The test system of assay [17] is PC-3. As to the kind of experiment: Induction of apoptosis in human PC-3 cells assessed as mitochondrial membrane potential loss at 4 uM incubated for 24 hrs by JC1 staining based flow cytometric analysis (reference value: 100%). It is filed as functional, cell-based.
Assay [18] has as its system PC-3. As to the kind of experiment: Induction of apoptosis in human PC-3 cells assessed as mitochondrial membrane potential loss at 6 uM incubated for 24 hrs by JC1 staining based flow cytometric analysis (reference value: 100%). It is filed as functional, cell-based.
For assay [19], the system named is PC-3. The experiment in a line: Induction of apoptosis in human PC-3 cells assessed as increase in Bax protein level incubated for 24 hrs by Western blot analysis. It is filed as functional, cell-based. The settings on record: dose 2-6 µM. (In general: A western blot detects proteins with antibodies after separation by electrophoresis.)
For assay [20], the system named is PC-3. As to the kind of experiment: Induction of apoptosis in human PC-3 cells assessed as increase in cleaved caspase-9 level at 2 to 6 uM incubated for 24 hrs by Western blot analysis. The settings on record: dose 2-6 µM. The format is functional, cell-based.
Assay [21] deals with PC-3. The experiment in a line: Induction of apoptosis in human PC-3 cells assessed as increase in cleaved PARP level at 2 to 6 uM incubated for 24 hrs by Western blot analysis. The format is functional, cell-based. As to conditions: dose 2-6 µM.

As for `CC1(C)Oc2cc(O)cc(CCc3ccccc3)c2C2=C1O[C@@H]1c3c(CCc4ccccc4)cc(O)cc3OC(C)(C)[C@H]21`, the IC50 in assay [1] came out at 3.2 µM; in assay [2], 3.6 µM; in assay [3] it was 4.5 µM; in assay [4], 6.2 µM.

With `CC1(C)Oc2cc(O)cc(CCc3ccccc3)c2C2=C1O[C@H]1c3c(CCc4ccccc4)cc(O)cc3OC(C)(C)[C@@H]21`, the 50% inhibitory concentration (IC50) in assay [1], in assay [2], in assay [3] and in [4] was greater than 10 µM in each case.

For `CC1(C)C=Cc2c(CCc3ccccc3)cc(O)c(C3CC(C)(C)Oc4cc(O)cc(CCc5ccccc5)c43)c2O1` (racemic), the half-maximal inhibitory concentration (IC50) in assay [1] worked out at 8.2 µM; in assay [2] it was 6.5 µM; in assay [3] it was 5.7 µM; in [4], 8.2 µM.

Take `CC12CC(c3c(CCc4ccccc4)cc(O)cc3O1)C1C(C2)c2c(CCc3ccccc3)cc(O)cc2OC1(C)C` (racemic): the IC50 in assay [1] was 5.4 µM; in assay [2], 5.8 µM; in [3] it was 4.6 µM; in [4], 7.2 µM.

`CC1(C)Oc2cc(O)cc(CCc3ccccc3)c2C(C2=Cc3c(CCc4ccccc4)cc(O)cc3OC2(C)C)C1=O` (racemic): the IC50 in [1] worked out at 4.1 µM; in assay [2], 4.5 µM; in assay [3], 4.9 µM; in assay [4], 6.4 µM.

For `CC1(C)Oc2cc(O)cc(CCc3ccccc3)c2C2=C1OC1c3c(CCc4ccccc4)cc(O)cc3OC(C)(C)C21` (racemic), the IC50 in [1] amounted to 3.4 µM; in assay [2], 3.7 µM; in assay [3], 5 µM; in [4] it was 6.6 µM. For the same compound, the outcome in [5], in assay [6], in assay [16], in assay [17], in [18] and in assay [19] was Active. Further, the result in assay [20] and in assay [21] was Active. The Activity in assay [7] was 2.65%; in assay [8], 1.4%; in assay [9], 1.82%; in assay [10] it was 5.68%; in assay [11] it was 7.81%; in assay [12], 60.74%. Moreover, the Activity in assay [13] was 4.12%; in [14], 2.55%; in assay [15], 18.81%.

As for `CC(C)=CCc1c(O)cc2c(c1CCc1ccccc1)C1(C(=O)O2)c2c(CCc3ccccc3)cc(O)cc2OC1(C)C` (racemic), the half-inhibitory concentration (IC50) turned out to be 1.5 µM in assay [1], 2.8 µM in [2], 3.6 µM in assay [3] and 6.9 µM in [4].

Turning to `CC1(C)C=Cc2c(cc3c(c2CCc2ccccc2)C2(C(=O)O3)c3c(CCc4ccccc4)cc(O)cc3OC2(C)C)O1` (racemic), the half-maximal inhibitory concentration (IC50) stood at 1.4 µM in assay [1], 2.6 µM in assay [2], 5.4 µM in assay [3] and 5.8 µM in [4].

As to `CC1(C)Oc2cc(O)cc(CCc3ccccc3)c2C2OC3c4c(CCc5ccccc5)cc(O)cc4OC(C)(C)C3C21` (racemic), the IC50 in assay [1] worked out at 3.5 µM; in [2], 3.1 µM; in assay [3], 5.8 µM; in [4], 6.7 µM.

For `CC1=CC2c3c(CCc4ccccc4)cc(O)cc3OC(c3c(O)cc(O)cc3CCc3ccccc3)C2C(C)(C)C1` (racemic), the values for the IC50 in assay [1] and in assay [3] were 8.2 µM and 9.8 µM, respectively.

In the case of `COc1cccc2c1C(=O)c1c(O)c3c(c(O)c1C2=O)C[C@@](O)(C(=O)CO)C[C@@H]3O[C@H]1C[C@H](N)[C@H](O)[C@H](C)O1` [DOXORUBICIN HYDROCHLORIDE], the IC50 in assay [1] came out at 0.4 µM; in assay [2] it was 1.2 µM; in [4] it was 4.7 µM.

The record behind these values is ChEMBL document CHEMBL4834432, “Diverse Prenylated Bibenzyl Enantiomers from the Chinese Liverwort Radula apiculata and Their Cytotoxic Activities” (J Nat Prod, 2021).
